Assay results from PMC7463999, “Antioxidant, Anti-inflammatory and Neuroprotective Profiles of Novel 1,4-Dihydropyridine Derivatives for the Treatment of Alzheimer’s Disease” (Antioxidants, 2020).
Where “and” joins values, the source holds several entries; their conditions need not be identical. Equal values may be shown once. Read-outs that look alike come from different tables or passages of the source.

Experiments:
[1] = tested on: voltage-dependent Ca^2+ channels (VDCC); assay: Voltage dependent calcium channels blockade assay (Fluo-4, 70 mM K+); format: cell-based, human; conditions: compounds at 10 μM, SH-SY5Y, basal = 100% response
Procedure: Free cytosolic Ca^2+ was measured using the fluorescence Ca^2+ indicator Fluo-4/AM. SH-SY5Y cells were seeded in 96-well black bottom transparent plates at a density of 60,000 cells per well and cultured until they reach confluence. Cells were incubated with the Ca^2+ sensitive dye Fluo-4/AM at 5 µM in Krebs-HEPES buffer (KH) (145 mM NaCl, 4.9 mM KCl, 1.2 mM MgCl2, 2 mM CaCl2, 10 mM HEPES, 11 mM glucose, pH 7.4), and 0.05% pluronic acid, for 1 h at 37 °C in the dark. Then, cells were washed twice with KH solution to remove the excess of probe and compounds in solution were added. Test compounds at 10 µM were incubated 10 min before K^+ 70 mM was applied to trigger cytosolic Ca^2+ increase. Fluorescence was measured in a fluorescence microplate reader (FLUOstar Optima, BMG, Ortenberg, Baden-Wuerttemberg, Germany) at excitation and emission wavelengths 485 and 520 nm, respectively. To normalize Fluo-4 signals, Triton X-100 (5%) and subsequently MnCl2 1 M were applied to the cells to register maximal and minimal fluorescence, respectively. Data were calculated as a percentage of Fluorescence increment with respect to Fmax − Fmin. The percentage of response was calculated considering basal conditions as 100% response.
Voltage dependent Calcium Channel Blockade Assay
Free cytosolic Ca2+ was measured using the fluorescence Ca2+ indicator Fluo-4/AM.
SH-SY5Y cells were seeded in 96-well black bottom transparent plates at a density of 60,000 cells per well until reaching confluence. Cells were incubated with the Ca2+ sensitive dye fluo-4 AM at 5 µM in Krebs-Hepes buffer (KH) (145 mM NaCl, 4.9 mM KCl, 1.2 mM MgCl2, 2 mM CaCl2, 10 mM HEPES, 11 mM glucose, pH 7.4), and 0.05 % pluronic acid, for 1 h at 37 °C in the dark. Then, cells were washed twice with KH solution to remove the excess of probe and compounds in solution were added. Tested compounds at 10 µM were incubated 10 min before K+ 70 mM was applied to evoke the increment of cytosolic Ca2+. The experiments were analyzed at excitation and emission wavelengths of 485 and 520 nm, respectively, and fluorescence was measured in a fluorescence microplate reader (FLUOstar Optima, BMG, Germany). To normalize Fluo-4 signals, Triton X-100 (5 %) and subsequently MnCl2 1 M were applied to cells for registering both maximal and minimal fluorescence, respectively. Data were calculated as % F increment respect to Fmax – Fmin. % of blockade was calculated considering basal conditions as 100 % response.
Then, the donor filter plate was carefully put on the acceptor plate to form a “sandwich”, which was left undisturbed for 4 h at 25 °C. During this time, the compounds diffused from the donor plate through the polar brain lipid membrane (area = 0.28 cm2) into the acceptor plate. After incubation, the donor plate was carefully removed. UV plate reader determined the concentration of compounds and commercial drugs in both acceptor and […]

[2] = tested on: blood-brain barrier (passive diffusion); assay: Blood-brain barrier permeation assay (PAMPA), porcine brain lipid; format: in vitro ADME
[3] = as above; format: in vitro ADME; conditions: for PAMPA Prediction: BBB permeability class from Pe; for Prediction of the BBB passive permeability: PAMPA control compounds
primary glial cultures [4] = assay: Cytotoxicity (gliotoxicity) in primary glial cultures, MTT; conditions: 24 h
Procedure: (§1) cell line SH-SY5Y and primary glial cultures. Viability was measured as
(§2) MTT reduction in presence of increasing concentrations of derivatives.
(§3) Values are expressed as LD50 calculated from dose-response curves of four
(§4) different concentrations. Data are expressed as mean  SEM of five
different experiments in triplicate.
(§5) Mixed glial cultures were obtained from cerebral cortex of 2-5-day-old Sprague-Dawley rats. After removal of blood vessels and meninges, the forebrains were dissociated in DMEM/F12 medium. After mechanical dissociation, cells were plated (3x10^5 cells/ml) in DMEM/F12 medium with 20 % fetal bovine serum (FBS) and 1 % penicillin/streptomycin (10,000 units), at 37 °C and in a 5 % CO2-supplemented air atmosphere. After 5 days, medium was substituted by DMEM/F12 medium with 10 %
(§6) FBS. Cells were cultured for 7-10 days before treatment.
(§7) SH-SY5Y or primary glial cells were cultured in 96-well plates for 24 h. Then, cells
(§8) were treated with the compounds at 10, 30 and 100 µM in the corresponding culture media
(§9) with 1 % FBS After 24 h, cell viability was assessed by the MTT-reduction assay. Control
(§10) cells were incubated with the same concentration of DMSO (0.1 % final concentration)
Viability assay by MTT-reduction
(§11) SH-SY5Y, primary glial culture cells and rat hippocampal slices viability was
measured by the MTT assay [11].

[5] = Oxygen Radical Absorbance Capacity (ORAC) assay; conditions: Trolox equivalents, ORAC of Trolox = 1.0; AAPH, fluorescein
DPPH reduction assay = conditions: DPPH 100 µM, 1 h in the dark
Procedure: The final solution was incubated during 1 h in the dark. […] Results are expressed as a percentage of DPPH reduction by subtracting blank absorbance (Absblank) to sample absorbance (Abssample) and corrected by control absorbance, (Abscontrol, DPPH alone, as expressed below: % DPPH reduction = [100 − ((Abssample − Absblank) × 100/Abscontrol)](1)
Briefly, the compounds under assay (150 µL) at the desired concentration (1, 10, 60 and 100 µM) in methanol/water (80/20) were added to a solution of DPPH in methanol/water (80/20) (150 µL, 100 µM), in a clear bottom 96-well plate, and the final solution was incubated 1 h in the dark. Then, DPPH absorbance of blank (methanol/water), control
Optima plate-reader (BMG Labtech, Ortenberg, Germany) in duplicate.
Results are expressed as % of absorbance (Abs) reduction of control after subtracting blank absorbance, as expressed
% DPPH reduction = [100 – (Abssample-Absblank) x 100]/Abscontrol

[6] = tested on: neuroblastoma cell line SH-SY5Y; assay: Cytotoxicity (neurotoxicity) in SH-SY5Y, MTT; conditions: 24 h
Procedure: (§12) LD50 in SH-SY5Y and primary glial culture cells
as §1, §2, §3, §4
different experiments in triplicate.
as §7, §8, §9, §10
Viability assay by MTT-reduction
as §11
(§13) measured by the MTT assay [11]. This method is based on the cleavage of the tetrazolium
(§14) ring of MTT by active dehydrogenases, generating a formazan precipitate. At the end of
(§15) the neuroprotection or toxicity experiments, an MTT solution was added to each well to
(§16) reach a final concentration of 0.5 mg/mL. After 2 additional hours of incubation, the
(§17) solution was replaced by 100 or 300 µL of DMSO to solubilize the formazan precipitate.
(§18) in control cells was considered as 100 % of cell survival and used to reference all

[7] = tested on: primary glial cultures stimulated with LPS; assay: Nitrite production reduction (Griess) in LPS-stimulated mixed primary glial cultures; format: cell-based, rat; conditions: Rattus norvegicus; LPS 1 μg/mL, 24 h pre-incubation, 18 h co-incubation
GSK-3β = GSK-3β (Homo sapiens, UniProt P49841); assay: GSK-3β inhibition, Kinase-Glo luminescence assay
[8] = tested on: SH-SY5Y human neuroblastoma cells; assay: Neuroprotection against rotenone/oligomycin A (oxidative stress), MTT; conditions: 1 μM, rotenone 30 μM / oligomycin A 10 μM, 24 h; for percentage of survival, R/O toxicity: basal = 100%
Procedure: (§19) Cells were pre-incubated with the corresponding compound at 1 μM in neuroblastoma culture medium. After 24 h, the medium was removed and replaced with 1% FBS neuroblastoma culture media containing the corresponding compound at 1 µM and the toxic stimuli, namely a mixture of rotenone and oligomycin A (R/O, 30 μM/10 μM, respectively), okadaic acid (OA) at 20 nM or a high concentration of KCl (70 mM). Cells were co-incubated for further 24 h with the R/O mixture or KCl solution, or 18 h with the OA solution. […] Control cells were incubated with the same amount of dimethyl sulfoxide (DMSO) without any drug. After the co-incubation period, cell viability was assessed by the 3-(4,5-dimethylthiazol-2-yl)-2,5-diphenyltetrazolium bromide (MTT) reduction method [56]; basal condition was considered as 100% survival.
(§20) Neuroprotection in the SH-SY5Y neuroblastoma cell line
(§21) A pre- and co-incubation protocol was followed. Cells were pre-incubated with the
(§22) corresponding compound at 1 M in neuroblastoma culture medium. After 24 h, the
(§23) medium was removed and replaced with 1% FBS neuroblastoma culture media
(§24) containing the corresponding compound at 1 µM and the toxic stimuli, namely a mixture
(§25) of rotenone and oligomycin A (30 M/10 M respectively), okadaic acid at 20 nM or a
(§26) high concentration of potassium chloride (70 mM). Cells were co-incubated for further
(§27) 24 h with the rotenone and oligomycin A or potassium chloride solution, or 18 h with the
(§28) okadaic acid solution. Control cells were incubated with the same amount of DMSO
(§29) and reference compounds in the rotenone-oligomycin A, okadaic acid or high
(§30) concentration of potassium models respectively. After the co-incubation period, cell
(§31) viability was assessed by the MTT-reduction method [11] considering basal conditions
Viability assay by MTT-reduction
as §11, §13, §14, §15, §16, §17, §18
(§32) treatments. The percentage of protection was calculated as follows: the percentage of cell
(§33) survival obtained with the toxic stimuli-treated cells subtracted to 100 was normalized to
(§34) 100 % of cell death. The percentage of protection was obtained by subtracting the
(§35) percentage of cell death in presence of the tested compound to 100 %.

[9] = tested on: SH-SY5Y human neuroblastoma cells; assay: Neuroprotection against okadaic acid (tau hyperphosphorylation), MTT; conditions: 18 h; for percentage of protection, okadaic acid toxicity: 1 μM, OA 20 nM; for viability at 1 µM: Homo sapiens, SH-SY5Y, read-out: cell viability (percentage survival), okadaic acid toxicity
Procedure: as §19, §20, §21, §22, §23, §24, §25, §26, §27, §28, §29, §30, §31
Viability assay by MTT-reduction
as §11, §13, §14, §15, §16, §17, §18, §32, §33, §34, §35

[10] = tested on: SH-SY5Y human neuroblastoma cells; assay: Neuroprotection against 70 mM K+ ([Ca2+]c overload), MTT; conditions: 1 μM, 24 h, basal = 100%
Procedure: as §19, §20, §21, §22, §23
containing the corresponding compound at 1 µM and the toxic stimuli, namely a mixture […]
viability was assessed by the MTT-reduction method [11] considering basal conditions […]
measured by the MTT assay [11]. […]
treatments. The percentage of protection was calculated as follows: the percentage of cell […]

primary glial cultures [11] = conditions: Sprague-Dawley, rat, 24 h
Procedure: as §1, §2, §3, §4
different experiments in triplicate.
as §5, §6, §7, §8, §9, §10
Viability assay by MTT-reduction
as §11
measured by the MTT assay [11].

[12] = tested on: neuroblastoma cell line SH-SY5Y; conditions: human, 24 h
Procedure: as §12, §1, §2, §3, §4
different experiments in triplicate.
as §7, §8, §9, §10
Viability assay by MTT-reduction
as §11, §13, §14, §15, §16, §17, §18

rat hippocampal slices = conditions: OA 1 μM alone, 6 h
Procedure: Finally, cell viability and ROS production were measured.
After the co-incubation period, cell
as §31
Viability assay by MTT-reduction
as §11, §13, §14, §15, §16, §17, §18, §32, §33, §34, §35
Acute treatment in rat hippocampal slices
3-4 months-old Sprague-Dawley rats were beheaded and both hippocampi dissected
0.5 mM CaCl2; 11 mM glucose and 200 mM sucrose at pH 7.4). […]
All values are expressed as mean ± S.E.M. IC50 and LD50 values were calculated by […]

[13] = PAMPA, 100 µM, PBS pH 7.4, 4 h at 25 °C, mean ± SEM, read-out: PAMPA Pe
[14] = pH 7.4, PAMPA control compounds, Pe ± SD, read-out: Pe ± SD

Sequence of GSK-3β (P49841 whole entry): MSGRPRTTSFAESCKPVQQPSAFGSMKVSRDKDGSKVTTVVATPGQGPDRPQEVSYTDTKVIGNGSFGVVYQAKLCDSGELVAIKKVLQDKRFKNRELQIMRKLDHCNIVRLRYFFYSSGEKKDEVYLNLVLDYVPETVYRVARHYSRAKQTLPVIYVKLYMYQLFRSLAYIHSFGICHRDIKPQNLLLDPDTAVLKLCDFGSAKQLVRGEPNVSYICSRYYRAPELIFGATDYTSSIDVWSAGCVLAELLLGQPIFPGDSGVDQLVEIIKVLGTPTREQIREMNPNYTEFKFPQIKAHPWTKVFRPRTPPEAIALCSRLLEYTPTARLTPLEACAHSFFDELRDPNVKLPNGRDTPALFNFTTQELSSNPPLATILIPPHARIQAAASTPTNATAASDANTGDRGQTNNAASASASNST

| Structure (SMILES) | Papp at 4 h, 100 µM [2, 13] [×10⁻⁶ cm/s] | PAMPA Prediction [3] | IC50 (DPPH reduction assay) [µM] | EC50 [7] [µM] | IC50 (GSK-3β) [µM] | Ki (GSK-3β) [µM] | VDCC % Response [1] | Glial cultures LD50 (primary glial cultures [4]) [µM] | ORAC (T. Eq.) [5] | SH-SY5Y LD50 [6] [µM] | other results |
| --- | --- | --- | --- | --- | --- | --- | --- | --- | --- | --- | --- |
| Cc1[nH]nc2c1C(c1ccccc1Cl)C(C#N)=C(N)N2 (stereo not drawn) [4c] | 9.4 ± 3.5 | CNS+ | 23.3 ± 2.6 | 14.4 ± 2.19 | 1.51 ± 1.1 | 1.06 | 58.7 ± 6.8% | > 100 | 0.94 T. Eq. and 0.94 ± 0.04 T. Eq. | > 100 | percentage of survival, R/O toxicity [8]: 81.3%; percentage of protection, okadaic acid toxicity [9]: over 50%; viability at 1 µM [9]: 74% |
| Cc1[nH]nc2c1C(c1ccc(Cl)cc1)C(C#N)=C(N)N2 (stereo not drawn) [4e] | 12.9 ± 3.6 | CNS+ | 20.9 ± 5.91 | 4.4 ± 0.35 | 1.94 ± 0.5 | 1.36 | 6.46% and 6.46 ± 1.6% | > 100 | 0.66 T. Eq. and 0.66 ± 0.07 T. Eq. | > 100 | percentage of survival, R/O toxicity [8]: 73.6%; viability at 1 µM [9]: 64.6% |
| Cc1[nH]nc2c1C(c1cccc([N+](=O)[O-])c1)C(C#N)=C(N)N2 (stereo not drawn) [4h] | 2.1 ± 1 | CNS± | 24.7 ± 4.03 | 3.5 ± 0.29 | 0.82 ± 0.2 | 0.57 | 75.5 ± 2.7% | > 100 | 0.73 T. Eq. and 0.73 ± 0.09 T. Eq. | > 100 | percentage of protection, okadaic acid toxicity [9]: 34.6%; viability at 1 µM [9]: 60.8% |
| Cc1[nH]nc2c1C(c1cccs1)C(C#N)=C(N)N2 (stereo not drawn) [4j] | 8.8 ± 4.4 | CNS+ | 20.9 ± 4.23 | 5.4 ± 0.27 | 1.74 ± 1 | 1.22 | 60.6 ± 6.8% | > 100 | 2.93 T. Eq. and 2.93 ± 0.15 T. Eq. | > 100 | fold more potent GSK-3β inhibitor than 4l (GSK-3β; ratio of IC50 values): 5 fold; viability at 1 µM [9]: 64% |
| O=C1O[C@H]([C@@H](O)CO)C(O)=C1O [Ascorbic ac., Ascorbic acid, reference compound] |  |  | 61.9 ± 4.96 |  |  |  |  |  |  |  |  |
| Cn1c(=O)c2c(ncn2C)n(C)c1=O [Caffeine, reference compound] |  |  |  |  |  |  |  |  |  |  | Prediction of the BBB passive permeability [3]: CNS (-) |
| COc1ccc2[nH]cc(CCNC(C)=O)c2c1 [Melatonin] |  |  |  |  |  |  |  |  |  |  | Glial cultures LD50 (primary glial cultures [11]): > 100 µM; percentage of protection, R/O toxicity [8]: 52.5%; SH-SY5Y LD50 [12]: > 100 µM |
| COCCOC(=O)C1=C(C)NC(C)=C(C(=O)OC(C)C)C1c1cccc([N+](=O)[O-])c1 (stereo not drawn) [Nimodipine, reference compound] |  |  |  |  |  |  | 51.0 ± 2.6% |  |  |  |  |
| C=C1[C@@H](O)[C@@H]2O[C@]3(CC[C@H](/C=C/[C@@H](C)[C@@H]4CC(C)=C[C@@]5(O[C@H](C[C@@](C)(O)C(=O)O)CC[C@H]5O)O4)O3)CC[C@H]2O[C@@H]1[C@@H](O)C[C@H](C)[C@H]1O[C@@]2(CCCCO2)CC[C@H]1C [OA, okadaic acid] |  |  |  |  |  |  |  |  |  |  | reduction of cell viability of hippocampal slices (rat hippocampal slices): 30% |
| CN1C(C(=O)Nc2ccccn2)=C(O)c2ccccc2S1(=O)=O [Piroxicam, reference compound] |  |  |  |  |  |  |  |  |  |  | Papp at 4 h, 100 µM [2, 14]: 3.3 ± 0.1 ×10⁻⁶ cm/s; Prediction of the BBB passive permeability [3]: CNS (+/-) |
| CC(=O)[C@H]1CC[C@H]2[C@@H]3CCC4=CC(=O)CC[C@]4(C)[C@H]3CC[C@]12C [Progesterone, reference compound] |  |  |  |  |  |  |  |  |  |  | Papp at 4 h, 100 µM [2, 14]: 2.2 ± 2.8 ×10⁻⁶ cm/s; Prediction of the BBB passive permeability [3]: CNS (+/-) |

Further lines, with some results ahead:

| Papp at 4 h, 100 µM [2, 13] [×10⁻⁶ cm/s] | PAMPA Prediction [3] | IC50 (DPPH reduction assay) [µM] | EC50 [7] [µM] | IC50 (GSK-3β) [µM] | Ki (GSK-3β) [µM] | Structure (SMILES) | VDCC % Response [1] | Glial cultures LD50 (primary glial cultures [4]) [µM] | ORAC (T. Eq.) [5] | SH-SY5Y LD50 [6] [µM] | other results |
| --- | --- | --- | --- | --- | --- | --- | --- | --- | --- | --- | --- |
| 8 ± 1.5 | CNS+ | 25.2 ± 7.91 | 5.2 ± 1.89 |  |  | Cc1[nH]nc2c1C(c1ccccc1)C(C#N)=C(N)N2 (stereo not drawn) [4a] | 72.1 ± 5.8% | > 100 | 0.69 ± 0.04 T. Eq. | > 100 |  |
| 4.8 ± 2.6 | CNS+ | 22.8 ± 6.68 | 5.7 ± 0.62 | 2.14 ± 1.1 | 1.5 | Cc1[nH]nc2c1C(c1ccc(F)cc1)C(C#N)=C(N)N2 (stereo not drawn) [4b] | 48.5 ± 7.6% | > 100 | 1.86 T. Eq. and 1.86 ± 0.08 T. Eq. | > 100 | percentage of protection, R/O toxicity [8]: 62.7%; percentage of survival, R/O toxicity [8]: 84.3% |
| 11.8 ± 3 | CNS+ | 22.8 ± 4.63 | 0.78 ± 1.98 | 1.05 ± 0.3 | 0.74 | Cc1[nH]nc2c1C(c1cccc(Cl)c1)C(C#N)=C(N)N2 (stereo not drawn) [4d] | 76.0 ± 6.5% | > 100 | 0.63 T. Eq. and 0.63 ± 0.09 T. Eq. | > 100 | survival percentage, high K+ toxicity [10]: 61.4%; percentage of protection, R/O toxicity [8]: 32.0%; percentage of survival, R/O toxicity [8]: 72.3% |
| 10.1 ± 5.4 | CNS+ | 21.6 ± 3.99 | 10.1 ± 0.72 | 0.83 ± 0.3 | 0.58 | Cc1[nH]nc2c1C(c1ccccc1Br)C(C#N)=C(N)N2 (stereo not drawn) [4f] | 7.39% and 7.39 ± 2.0% | > 100 | 1.00 ± 0.16 T. Eq. | > 100 | percentage of protection, okadaic acid toxicity [9]: over 50% |
| 3.1 ± 1 | CNS± | 23.2 ± 4.31 | 6.1 ± 1.84 | 3.09 ± 0.4 | 2.17 | Cc1[nH]nc2c1C(c1ccc([N+](=O)[O-])cc1)C(C#N)=C(N)N2 (stereo not drawn) [4i] | 73.2 ± 2.9% | > 100 | 0.96 ± 0.05 T. Eq. | > 100 |  |
| 0.7 ± 0.9 | CNS- | 17.1 ± 2.18 | 22.3 ± 3.42 | 4.53 ± 2.1 | 3.18 | Cc1[nH]nc2c1C(c1cccnc1)C(C#N)=C(N)N2 (stereo not drawn) [4k] | 85.6% and 85.6 ± 5.3% | > 100 | 1.03 ± 0.16 T. Eq. | > 100 | percentage of protection, okadaic acid toxicity [9]: over 50% |
| 5 ± 2.9 | CNS+ | 22.9 ± 4.23 | 15.6 ± 3.35 | 10.2 ± 3.2 | 7.14 | Cc1[nH]nc2c1C(c1ccncc1)C(C#N)=C(N)N2 (stereo not drawn) [4l] | 68.9 ± 4.5% | > 100 | 1.1 T. Eq. and 1.10 ± 0.13 T. Eq. | > 100 | survival percentage, high K+ toxicity [10]: 78.9%; percentage of protection, R/O toxicity [8]: 71.6%; percentage of protection, okadaic acid toxicity [9]: over 50% |
